Results as given in patent US7476754B2, “Biphenyl derived thiamides as calpain inhibitors” (Consejo Superior de Investigaciones Cientificas, priority 2004, dated 2009).

The compounds below were run against T1, calpain I (Sus scrofa, UniProt P35750) (assay: Enzyme activity test: inhibition of calpain (EnzCheck protease assay kit, BODIPY FL casein, fluorescence)). Settings: calpain I from porcine erythrocytes; BODIPY FL casein substrate; Tris-HCl pH 7.8; triplicate.
T1 construct: The calpain I from porcine erythrocytes; purchased CALBIOCHEM; host or cells: porcine erythrocytes (tissue-purified)
T1 sequence (P35750 1-714): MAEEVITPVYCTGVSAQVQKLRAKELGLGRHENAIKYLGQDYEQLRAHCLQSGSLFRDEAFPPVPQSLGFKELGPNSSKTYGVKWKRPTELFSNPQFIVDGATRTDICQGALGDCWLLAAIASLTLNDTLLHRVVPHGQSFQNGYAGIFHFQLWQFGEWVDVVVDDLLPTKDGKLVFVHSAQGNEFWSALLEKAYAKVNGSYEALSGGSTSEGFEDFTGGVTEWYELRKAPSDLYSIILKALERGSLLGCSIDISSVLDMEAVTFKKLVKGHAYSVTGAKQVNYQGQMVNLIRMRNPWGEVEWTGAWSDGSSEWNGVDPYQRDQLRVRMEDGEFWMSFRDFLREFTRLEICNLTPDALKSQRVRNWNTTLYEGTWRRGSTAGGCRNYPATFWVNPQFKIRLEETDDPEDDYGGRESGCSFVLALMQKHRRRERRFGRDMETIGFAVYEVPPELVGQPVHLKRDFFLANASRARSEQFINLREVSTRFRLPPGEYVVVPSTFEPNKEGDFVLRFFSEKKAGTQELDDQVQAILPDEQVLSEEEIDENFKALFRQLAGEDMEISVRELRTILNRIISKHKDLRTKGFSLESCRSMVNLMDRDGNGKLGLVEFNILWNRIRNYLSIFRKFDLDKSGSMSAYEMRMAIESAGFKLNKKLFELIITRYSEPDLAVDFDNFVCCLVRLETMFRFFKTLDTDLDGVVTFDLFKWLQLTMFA
T1 sequence (P04574 1-266 partner): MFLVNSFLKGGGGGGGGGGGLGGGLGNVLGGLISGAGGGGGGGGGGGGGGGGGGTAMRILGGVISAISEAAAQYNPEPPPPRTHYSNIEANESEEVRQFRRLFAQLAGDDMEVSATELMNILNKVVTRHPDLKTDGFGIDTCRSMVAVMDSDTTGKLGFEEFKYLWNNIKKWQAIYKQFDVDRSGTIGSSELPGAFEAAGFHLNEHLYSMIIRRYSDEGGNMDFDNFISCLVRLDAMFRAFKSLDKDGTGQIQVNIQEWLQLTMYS
Format: biochemical
Text: The calpain inhibition capacity has been quantified in terms of the value of IC50, which is defined as the concentration of inhibitor that reduces the catalytic activity of an enzyme by half. The lower the value of IC50, the more powerful the inhibitor. Inhibition results on calpain I (the most relevant from a physiological point of view) of some compounds of the present invention are shown in table 1 and in FIG. 1. Given that calpain II, also known as milli-calpain, needs a greater amount of calcium for activation, it might not possibly have such a relevant physiological role since such a concentration of calcium would cause cell death before the milli-calpain could become activated. For this reason, the inhibition tests have been performed for calpain I, though they can be extrapolated for calpain II.
The calpain inhibition capacity has been quantified in terms of the value of IC50, which is defined as the concentration of inhibitor that reduces the catalytic activity of an enzyme by half. The lower the value of IC50, the more powerful the inhibitor. Inhibition results on calpain I (the most relevant from a physiological point of view) of some compounds of the present invention are shown in table 1 and in FIG. 1.
In order to carry out the inhibition test on calpains, we used the EnzCheck® Protease Assay Kit E-338 from Molecular Probes. This kit contains casein marked with BODIPY FL®, freeze-dried from phosphate buffer. Also used as a digestion buffer was Tris-HCl at pH 7.8, containing 2 mM of sodium azide. The calpain I from porcine erythrocytes or calpain II from porcine kidney that were used are commercial products from CALBIOCHEM®. The enzyme stock solution contained 20 mM of imidazol-HCl buffer, pH 6.8, 1 mM EDTA, 1 mM EGTA, 5 mM β-mercaptoethanol, 30% in glycerol.
The synthetic inhibitors were dissolved in 250 μL of DMSO. The tests were conducted on 96-well microplates in a final volume of 200 μL. In order to carry out the test, aliquots of stock solution of calpain were added to 150 μL of a 10 μg/μL solution in digestion buffer in order to obtain a final concentration of 50 ng/mL of enzyme. Minimum quantities were added, between 5 and 20 μL of inhibitor solution in DMSO, previously diluted in order to achieve the desired final concentration of inhibitor, and digestion buffer was added until a volume of 190 μL was achieved. The test commenced by adding 10 μL of 0.05 M CaCl2 solution. For each inhibitor, separate measurements excluding inhibitor, calpain and calcium solution were taken as blanks. All measurements were made in triplicate.
The fluorescence measurements were made in a SPECTRAFLUOR TECAN Corp 93382 spectrum fluorimeter, exciting at 485 nm and taking the reading at 530 nm. The measurement was made over 20 cycles until the measurement of all wells was completed. Stirring was orbital type and took place each cycle.
For `COC(=O)[C@H](Cc1c[nH]c2ccccc12)NC(=S)c1ccccc1-c1ccccc1C(=S)N[C@@H](Cc1c[nH]c2ccccc12)C(=O)OC` [Compound 3, Methyl (S,S)-3-(1H-Indol-3-yl)-2-{[2′-(2-(1H-Indol-3-yl)-1-methoxycarbonyl-ethylthiocarbamoyl)-biphenyl-2-carbothioyl]-amino}-propionate], the IC50 was 0.038 nM. `COC(=O)[C@H](Cc1ccccc1)NC(=O)c1ccccc1-c1ccccc1C(=S)N[C@@H](Cc1ccccc1)C(=O)OC` [Compound 2, Methyl (S,S)-3-phenyl-2-{[2′-(2-phenyl-1-methoxycarbonyl-ethylthio-carbamoyl)-biphenyl-2-carbonyl]-amino}-propionate] was tested, and the IC50 was 63000 nM. In the case of `COC(=O)[C@H](Cc1ccc(O)cc1)NC(=O)c1ccccc1-c1ccccc1C(=S)N[C@@H](Cc1ccc(O)cc1)C(=O)OC` [Compound 8], the IC50 is reported as 12000 nM. In the case of `COC(=O)[C@H](Cc1ccccc1)NC(=S)c1ccccc1-c1ccccc1C(=S)N[C@@H](Cc1ccccc1)C(=O)OC` [Compound 1, Methyl (S,S)-3-phenyl-2-{[2′-(2-phenyl-1-methoxycarbonyl-ethylthio-carbamoyl)-biphenyl-2-carbothiol]-amino}—propionate], the IC50 is reported as 94000 nM. `COC(=O)[C@@H](NC(=O)c1ccccc1-c1ccccc1C(=S)N[C@H](C(=O)OC)C(C)C)C(C)C` [Compound 6, Methyl (S,S)-2-{[2′-(1-methoxycarbonyl-2-methyl-propylthiocarbamoyl)-biphenyl-2-carbonyl]-amino}-3-methyl-butyrate] showed an IC50 of 0.052 nM. `COC(=O)[C@@H](NC(=S)c1ccccc1-c1ccccc1C(=S)N[C@H](C(=O)OC)C(C)C)C(C)C` [Compound 5, Methyl (S,S)-2-{[2′-(1-methoxycarbonyl-2-methyl-propylthiocarbamoyl)-biphenyl-2-carbothioyl]-amino}-3-methyl-butyrate] gave an IC50 of 71 nM. With `COC(=O)[C@H](Cc1ccc(O)cc1)NC(=S)c1ccccc1-c1ccccc1C(=S)N[C@@H](Cc1ccc(O)cc1)C(=O)OC` [Compound 7] the IC50 was 796 nM. Work on `COC(=O)[C@H](Cc1c[nH]c2ccccc12)NC(=O)c1ccccc1-c1ccccc1C(=S)N[C@@H](Cc1c[nH]c2ccccc12)C(=O)OC` [Compound 4, Methyl (S,S)-3-(1H-Indol-3-yl)-2-{[2′-(2-(1H-Indol-3-yl)-1-methoxycarbonyl-ethylthiocarbamoyl)-biphenyl-2-carbonyl]-amino}-propionate] yielded an IC50 of 69 nM.
